Test results reported in patent US4097595A, “7-Amino-thiazolyl acetamido cephalosporanic acids” (Roussel Uclaf, priority 1976, dated 1978).
Values after ≈ are worked out from the molar mass of the structure shown. Like-named read-outs stand apart in the source and are kept apart here.

Experiments:
[1] = tested on: Escherichia Coli (T) 026B6; assay: Experimental infection with Escherichia Coli (T) 026B6 in mice; format: in vivo; settings: for Mice living on 8th day: subcutaneous, 1, 5 and 24 hours after infection, control 0/10
Description: Again, the activity of the product of Example 2 was tested against experimental infection of Escherichia Coli in mice. Groups of 10 male mice weighing about 23 g were infected with an intraperitoneal injection of 0.5 ml of a 24 hour culture in Pasteur nutritive media of Escherichia Coli (T) 026B6 diluted by 1/6 with distilled water. The test product was administered subcutaneously one hour, five hours and 24 hours after the infection and the mortality was determined during 8 days.

[2] = tested on: Proteus mirabilis No. A 235; assay: In vivo activity, experimental infection of Proteus mirabilis in mice; settings: for Mice living on 8th day: subcutaneous, 1, 5 and 24 hours after infection, controls 0/10; for Mortality after 21 h 15: subcutaneous, number of dead of 10 mice, controls 10
Description: The product of Example 2 was studied for its effect on an experimental infection of Proteus mirabilis in mice. Groups of 10 male mice weighing about 22.5 g were infected by an intraperitoneal injection of 0.5 ml of a 24 hour culture in Pasteur nutritive media of Proteus mirabilis No. A 235 diluted by 1/4 with distilled water.
The mice received a subcutaneous injection 1 hour, 5 hours and 24 hours after the infection of a quantity of the product of Example 2 and the mortality was noted during 8 days.

[3] = tested on: Staphylococcus aureus UC 1128 (penicillin resistant); assay: MIC, dilution method in liquid media, Staphylococcus aureus UC 1128, penicillin resistant; format: cell-based
Description: (§1) A series of tubes were prepared with the same quantity of sterile nutrive media and increasing quantities of the test product was distributed to each tube. Then, each tube was seeded with a bacterial strain and after incubation at 37° C for 24 or 48 hours, the inhibition of the growth was determined by transillumination which permitted determination of the minimum inhibitory concentrations (M.I.C.) in μg/ml.

[4] = tested on: Escherichia Coli UC 1 020; assay: MIC, dilution method in liquid media, Escherichia Coli UC 1 020; format: cell-based
Description: as §1

[5] = tested on: Escherichia Coli (T) 0 26 B 6; assay: MIC, dilution method in liquid media, Escherichia Coli (T) 026 B6; format: cell-based
Description: as §1

[6] = tested on: Streptococcus faecalis 5 432; assay: MIC, dilution method in liquid media, Streptococcus faecalis 5 432; format: cell-based
Description: as §1

[7] = tested on: Bacillus subtilis; assay: MIC, dilution method in liquid media, Bacillus subtilis; format: cell-based
Description: as §1

[8] = tested on: Klebsiella pneumoniae 52 145; assay: MIC, dilution method in liquid media, Klebsiella pneumoniae 52 145; format: cell-based; settings: read-out: MIC
Description: as §1

[9] = tested on: Staphylococcus aureus 54 146; assay: MIC, dilution method in liquid media, Staphylococcus aureus 54 146; format: cell-based; settings: read-out: MIC
Description: as §1

[10] = tested on: Streptococcus hemolyticus; assay: MIC, dilution method in liquid media, Streptococcus hemolyticus; format: cell-based; settings: Streptococcus pyogenes
Description: as §1

[11] = tested on: Staphylococcus aureus UC 1 061 (penicillin sensible); assay: MIC, dilution method in liquid media, Staphylococcus aureus UC 1061, penicillin sensible; format: cell-based
Description: as §1

[12] = tested on: Proteus mirabilis (indol); assay: MIC, dilution method in liquid media, Proteus mirabilis (indol); format: cell-based
Description: as §1

[13] = tested on: Escherichia Coli UC 1 261; assay: MIC, dilution method in liquid media, Escherichia Coli UC 1 261; format: cell-based
Description: as §1

[14] = tested on: staphylococcus aureus 54,146; assay: In vivo activity, experimental staphylococcia in mice; settings: for Mice living after 8th day: subcutaneous, 1, 5 and 24 hours after infection
Description: The antibacterial activity of the compound of Example 2 was determined against experimental staphylococcia in mice. Lots of 10 male mice weighing about 21.5 g were infected by intraperitoneal injection of 0.5 ml of a 24 hour culture of staphylococcus aureus 54,146 in Pasteur nutritive broth diluted by 1/5 with distilled water. The test product was administered subcutaneously 1 hour, 5 hours and 24 hours after the infection in different doses.

[15] = tested on: Salmonella Typhimurium; assay: MIC, dilution method in liquid media, Salmonella Typhimurium; format: cell-based; settings: Salmonella enterica, strain 420 (Tables II, IV)
Description: as §1

[16] = tested on: Escherichia Coli R 55 123 D; assay: MIC, dilution method in liquid media, Escherichia Coli R 55 123 D; format: cell-based; settings: COLIR55123D
Description: as §1

[17] = tested on: Streptococcus pyogenes A 561; assay: MIC, dilution method in liquid media, Streptococcus pyogenes A 561; format: cell-based
Description: as §1

[18] = 0.5 mg in each injection, subcutaneous, number of dead of 10 mice
[19] = Enterococcus faecalis, 5432, 24 h, read-out: MIC
[20] = Klebsiella pneumoniae, 52145, 24 h
[21] = Klebsiella pneumoniae, 52145, 48 h
[22] = Staphylococcus aureus, 54146, 24 h
[23] = Staphylococcus aureus, 54146, 48 h
[24] = 0.1 mg in each injection, subcutaneous, number of dead of 10 mice
[25] = 0.25 mg in each injection, subcutaneous, number of dead of 10 mice

Q: Which results are given for CC(=O)SCC1=C(C(=O)O)N2C(=O)C(NC(=O)Cc3csc(N)n3)[C@H]2SC1 (some centres unmarked) [Example 2, 7-[2-(2-amino-4-thiazolyl)-acetamido]-3-acetylthiomethyl-ceph-3-eme-4-carboxylic acid]?
A: Mice living on 8th day ([1]; 0.5 mg in each injection): 0/10; Mortality at 21 h 15 [1, 18]: 6; Mortality at 24 h 15 [1, 18]: 1; Mortality at 27 h 45 [1, 18]: 1; Mortality at 45 h 30 [1, 18]: 1; Mortality at 70 h [1, 18]: 1; Mice living on 8th day ([1]; 1 mg in each injection): 9/10; Mortality at 30 h 45 ([1]; 1 mg in each injection, subcutaneous, number of dead of 10 mice): 1; Mice living on 8th day ([2]; 0.1 mg in each injection): 8/10; Mortality after 21 h 15 ([2]; 0.1 mg in each injection): 2; Mice living on 8th day ([2]; 0.25 mg in each injection): 10/10; Mortality after 21 h 15 ([2]; 0.25 mg in each injection): 0; Mice living on 8th day ([2]; 0.5 mg in each injection): 10/10; Mortality after 21 h 15 ([2]; 0.5 mg in each injection): 0; Mice living on 8th day ([2]; 0.75 mg in each injection): 10/10; Mortality after 21 h 15 ([2]; 0.75 mg in each injection): 0; MIC ([3]; UC1128, 24 H): 1 µg/mL (≈ 2.33 µM); MIC ([3]; UC1128, 48 H): 1 µg/mL (≈ 2.33 µM); MIC ([4]; UC1, 24 h, read-out: MIC): 2 µg/mL (≈ 4.67 µM); MIC ([4]; UC1, 48 h, read-out: MIC): 5 µg/mL (≈ 11.7 µM); MIC ([5]; 24 h): 3 µg/mL (≈ 7 µM); MIC ([5]; 48 h): 3 µg/mL (≈ 7 µM); MIC [6, 19]: 5 µg/mL (≈ 11.7 µM); MIC ([6]; Enterococcus faecalis, 5432, 48 h, read-out: MIC): > 40 µg/mL; MIC ([7]; 24 h, read-out: MIC): 0.1 µg/mL (≈ 0.233 µM); MIC ([7]; 48 h, read-out: MIC): 0.5 µg/mL (≈ 1.17 µM); MIC [8, 20]: 0.5 µg/mL (≈ 1.17 µM); MIC [8, 21]: 0.5 µg/mL (≈ 1.17 µM); MIC [9, 22]: 0.6 µg/mL (≈ 1.4 µM); MIC [9, 23]: 0.6 µg/mL (≈ 1.4 µM); MIC ([10]; 24 h): 0.05 µg/mL (≈ 0.117 µM); MIC ([10]; 48 H, in bacto Todd Hewitt Broth pH = 7.8, read-out: MIC): 0.1 µg/mL (≈ 0.233 µM); MIC ([11]; 24 H, Staphylococcus Oxford UC 1061, penicillin sensible): 0.5 µg/mL (≈ 1.17 µM); MIC ([11]; 48 H, Staphylococcus Oxford UC 1061, penicillin sensible): 0.5 µg/mL (≈ 1.17 µM); MIC ([12]; 24 h, read-out: MIC): 1 µg/mL (≈ 2.33 µM); MIC ([12]; 48 h, read-out: MIC): 1 µg/mL (≈ 2.33 µM); MIC ([13]; UC1, 24 h): 1 µg/mL (≈ 2.33 µM); MIC ([13]; UC1, 48 h): 1 µg/mL (≈ 2.33 µM); Mice living after 8th day ([14]; 0.1 mg in each injection): 0/10; Mortality after 9 h 45 [14, 24]: 1; Mortality after 22 h 30 [14, 24]: 8; Mortality after 29 h [14, 24]: 1; Mice living after 8th day ([14]; 0.25 mg in each injection): 6/10; Mortality after 22 h 30 [14, 25]: 1; Mortality after 25 h 30 [14, 25]: 1; Mortality after 4 d [14, 25]: 1; Mortality after 5 d [14, 25]: 1; Mice living after 8th day ([14]; 0.5 mg in each injection): 9/10; Mortality after 4 d [14, 18]: 1; Mice living after 8th day ([14]; 0.75 mg in each injection): 10/10; Mice living after 8th day ([14]; 1 mg in each injection): 10/10

Q: What does the source list for Nc1nc(CC(=O)NC2C(=O)N3C(C(=O)O)=C(CSC(=O)c4csc(=O)[nH]4)CSC23)cs1 (centres unmarked) [Example 4, 7-[2-(2-amino-4-thiazolyl)-acetamido]-3-[{(2-oxo-(3H)-thiazolin-4-yl)-carbonyl}-thiomethyl]-ceph-3-eme-4-carboxylic acid]?
A: MIC ([3]; UC1128, 24 H): 1 µg/mL (≈ 1.95 µM); MIC ([3]; UC1128, 48 H): 1 µg/mL (≈ 1.95 µM); MIC ([4]; UC1, 24 h): 2 µg/mL (≈ 3.89 µM); MIC ([4]; UC1, 48 h): 2 µg/mL (≈ 3.89 µM); MIC ([5]; 24 h): 2 µg/mL (≈ 3.89 µM); MIC ([5]; 48 h): 3 µg/mL (≈ 5.84 µM); MIC [6, 19]: 10 µg/mL (≈ 19.5 µM); MIC ([6]; Enterococcus faecalis, 5432, 48 h): > 40 µg/mL; MIC ([7]; 24 h, read-out: MIC): 0.1 µg/mL (≈ 0.195 µM); MIC ([7]; 48 h): 0.1 µg/mL (≈ 0.195 µM); MIC [8, 20]: 0.1 µg/mL (≈ 0.195 µM); MIC [8, 21]: 0.2 µg/mL (≈ 0.389 µM); MIC [9, 22]: 0.5 µg/mL (≈ 0.974 µM); MIC [9, 23]: 1 µg/mL (≈ 1.95 µM); MIC ([15]; 24 H): 3 µg/mL (≈ 5.84 µM); MIC ([15]; 48 H): 3 µg/mL (≈ 5.84 µM); MIC ([11]; UC1, 24 H, penicillin sensible): 0.2 µg/mL (≈ 0.389 µM); MIC ([11]; UC1, 48 H, penicillin sensible): 0.5 µg/mL (≈ 0.974 µM); MIC ([16]; 24 h): 5 µg/mL (≈ 9.74 µM); MIC ([16]; 48 h, read-out: MIC): 10 µg/mL (≈ 19.5 µM); MIC ([12]; 24 H, A 235, read-out: MIC): 0.6 µg/mL (≈ 1.17 µM); MIC ([12]; 48 H, A 235, read-out: MIC): 0.6 µg/mL (≈ 1.17 µM); MIC ([13]; UC1, 24 h, read-out: MIC): 1 µg/mL (≈ 1.95 µM); MIC ([13]; UC1, 48 h, read-out: MIC): 1 µg/mL (≈ 1.95 µM); MIC ([17]; A561, 24 h): 0.1 µg/mL (≈ 0.195 µM); MIC ([17]; A561, 48 h): 0.2 µg/mL (≈ 0.389 µM)
